In general, pIC50 refers to −log10 of the IC50, conventionally taken in molar units.

Experimental findings from patent US9908886B2 (Agency for Science, Technology and Research, priority 2012, dated 2018) are described below.

The structures appear in SMILES notation. pIC50: −log10 of the molar value. Counter-ions that a name gives are not always drawn.

Assay [1] deals with MNK1 (Homo sapiens, UniProt Q9BUB5). The experiment in a line: In vitro MNK kinase assay (Caliper LabChip mobility shift). It counts as biochemical. To be noted: enzymatic, 1.2 mM ATP; read-out: IC50 Mnk1.
Assay [2] has as its target MNK2 (Homo sapiens (Human), UniProt Q9HBH9). The description is as above. It counts as biochemical. To be noted: enzymatic, 250 μM ATP; read-out: IC50 Mnk2.

Sequence of MNK2 (Q9HBH9 84-388): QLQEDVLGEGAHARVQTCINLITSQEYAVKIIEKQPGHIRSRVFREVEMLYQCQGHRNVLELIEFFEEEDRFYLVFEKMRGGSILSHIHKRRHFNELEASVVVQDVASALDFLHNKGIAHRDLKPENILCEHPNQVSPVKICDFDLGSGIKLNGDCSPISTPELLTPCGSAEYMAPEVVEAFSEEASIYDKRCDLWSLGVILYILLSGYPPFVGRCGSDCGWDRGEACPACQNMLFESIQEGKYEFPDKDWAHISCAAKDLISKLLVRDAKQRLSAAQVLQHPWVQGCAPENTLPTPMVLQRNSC

Turning to `CC(=O)Nc1cc(-c2ccc3ncc(-c4ccc(C#N)cc4)n3c2)ccc1C(=O)N1CCOCC1` [Example 166, N-(5-(3-(4-cyanophenyl)imidazo[1,2-a]pyridin-6-yl)-2-(morpholine-4-carbonyl)phenyl)acetamide], the pIC50 in assay [1] and in assay [2] was above 7.00 throughout.

On to `NC(=O)c1ccc(-c2cn3c(-c4ccc(Cl)cc4)cnc3cn2)cc1` [Example 42, 4-(3-(4-chlorophenyl)imidazo[1,2-a]pyrazin-6-yl)benzamide], for which the pIC50 in assay [1] and in assay [2] was above 6.00 each time.

For the compound `CNC1CCN(C(=O)c2ccc(-c3cn4c(-c5ccc(C#N)cc5)cnc4cn3)cc2)CC1` [Example 9, 4-(6-(4-(4-(methylamino)piperidine-1-carbonyl)phenyl)imidazo[1,2-a]pyrazin-3-yl)benzonitrile], the negative logarithm of the IC50 (pIC50) in assay [1] and in assay [2] was above 6.00 throughout.

Turning to `CN1CCN(C(=O)c2ccc(-c3ccc4ncc(-c5ccc6c(c5)CC(=O)N6)n4n3)cc2)CC1` [Example 85, 5-(6-(4-(4-methylpiperazine-1-carbonyl)phenyl)imidazo[1,2-b]pyridazin-3-yl)indolin-2-one], the negative-log IC50 (pIC50) in assay [1] and in assay [2] was above 7.00 in each case.

Turning to `N#Cc1ccc(-c2cnc3ccc(-c4ccc(C(=O)N5CCC(O)CC5)cc4)nn23)cc1` [Example 55, 4-(6-(4-(4-hydroxypiperidine-1-carbonyl)phenyl)imidazo[1,2-b]pyridazin-3-yl)benzonitrile], the negative logarithm of the IC50 (pIC50) in assay [1] and in assay [2] was above 7.00 in each case.

With `CN(C)C1CCN(C(=O)c2ccc(-c3cn4c(-c5ccc(C#N)cc5)cnc4cn3)cc2)CC1` [Example 21, 4-(6-(4-(4-(dimethylamino)piperidine-1-carbonyl)phenyl)imidazo[1,2-a]pyrazin-3-yl)benzonitrile], the pIC50 in assay [1] and in assay [2] was above 6.00 throughout.

Turning to `CN(C(=O)c1ccc(-c2ccc3ncc(-c4ccc(C#N)cc4)n3c2)cc1)c1ccncc1` [Example 122, 4-(3-(4-cyanophenyl)imidazo[1,2-a]pyridin-6-yl)-N-methyl-N-(pyridin-4-yl)benzamide], the pIC50 in assay [1] and in assay [2] was above 6.00 each time.

Take `CC(=O)N1CCCCC12CCN(C(=O)c1ccc(-c3ccc4ncc(-c5ccc(C#N)cc5)n4c3)cc1)CC2` [Example 118, 4-(6-(4-(1-acetyl-1,9-diazaspiro[5.5]undecane-9-carbonyl)phenyl)imidazo[1,2-a]pyridin-3-yl)benzonitrile]: the negative-log IC50 (pIC50) in assay [1] and in assay [2] was above 7.00 each time.

Consider `CN1CCN(C(=O)c2ccc(-c3ccc4ncc(-c5ccc(C#N)cc5)n4n3)cc2F)CC1` [Example 73, 4-(6-(3-fluoro-4-(4-methylpiperazine-1-carbonyl)phenyl)imidazo[1,2-b]pyridazin-3-yl)benzonitrile], for which the negative logarithm of the IC50 (pIC50) in assay [1] and in assay [2] was above 7.00 each time.

Consider `CC1(N)CCN(C(=O)c2ccc(-c3cn4c(-c5ccc(C#N)cc5)cnc4cn3)cc2)CC1` [Example 23, 4-(6-(4-(4-amino-4-methylpiperidine-1-carbonyl)phenyl)imidazo[1,2-a]pyrazin-3-yl)benzonitrile Hydrochloride Salt], for which the negative logarithm of the IC50 (pIC50) in assay [1] is above 6.00; in assay [2] it was above 7.00.

With `CN1CCN(C(=O)c2ccc(-c3ccc4ncc(-c5ccc(O)cc5)n4c3)cc2)CC1` [Example 175, (4-(3-(4-hydroxyphenyl)imidazo[1,2-a]pyridin-6-yl)phenyl)(4-methylpiperazin-1-yl)methanone], the pIC50 in assay [2] was above 7.00.

Take `O=C(c1ccc(-c2cn3c(-c4ccc(Cl)cc4)cnc3cn2)cc1)N1CCC(NC(=O)C(F)(F)F)CC1` [Example 48, N-(1-(4-(3-(4-chlorophenyl)imidazo[1,2-a]pyrazin-6-yl)benzoyl)piperidin-4-yl)-2,2,2-trifluoroacetamide]: in assay [1], the pIC50 is above 6.00.
